Experiments:
Prothrombin = Prothrombin (Homo sapiens, UniProt P00734); test: Inhibitory activity against thrombin
[1] = Bioavailability in dog; format: ADME, organism-based, Canis lupus familiaris; conditions: in vivo
[2] = Clearance on i.v. administration of 2 mg/kg was measured in dog; format: ADME, organism-based, Canis lupus familiaris; design: dose 2 mg/kg, route intravenous; conditions: in vivo, iv
[3] = Vss on i.v. administration of 2 mg/kg was measured in dog; format: ADME, organism-based, Canis lupus familiaris; design: dose 2 mg/kg, route intravenous; conditions: in vivo, iv, read-out: Vss
[4] = Cmax on p.o. administration of 10 mg/kg was measured in dog; format: ADME, organism-based, Canis lupus familiaris; design: dose 10 mg/kg, route oral; conditions: in vivo, po
[5] = Half life on i.v. administration of 2 mg/kg was measured in dog; format: ADME, organism-based, Canis lupus familiaris; design: dose 2 mg/kg, route intravenous; conditions: in vivo, iv
Caco-2 = test: Apparent permeability coefficient (Papp) from the apical to basolateral side in the human Caco-2 monolayer was determined; format: functional
Homo sapiens = organism: Homo sapiens; test: Concentration of compound required to double the human activated partial thromboplastin time; format: functional

Work on C=CCN(Cc1ccoc1)C(=O)c1cc(Cl)cc(OCCCONC(=N)N)c1 yielded a Ki (Prothrombin) of 20 nM.

With N=C(N)NOCCCOc1cc(Cl)cc(C(=O)N2CCCCC2)c1 the Ki (Prothrombin) was 880 nM.

With N=C(N)NOCCCOc1cc(Cl)cc(C(=O)N2CCCCCC2)c1 the Ki (Prothrombin) was 470 nM.

Cc1cc(OCCCONC(=N)N)cc(C(=O)N(Cc2cccnc2)CC2CC2)c1 gave a Ki (Prothrombin) of 34 nM.

In the case of Cc1cc(OCCCON=C(N)N)cc(C(=O)N(Cc2ccoc2)C(C)C)c1, the Ki (Prothrombin) is reported as 68 nM.

N=C(N)NOCCCOc1cc(Cl)cc(C(=O)N(Cc2ccoc2)CC2CC2)c1 gave a Ki (Prothrombin) of 17 nM.

Work on N=C(N)NOCCCOc1cc(Cl)cc(C(=O)N2CCN(c3ccccc3)CC2)c1 yielded a Ki (Prothrombin) of 2900 nM.

In the case of CN(C(=O)c1cc(Cl)cc(OCCCON=C(N)N)c1)C1CCCCC1, the Ki (Prothrombin) is reported as 33 nM.

Work on CCCN(Cc1ccccn1)C(=O)c1cc(C)cc(OCCCON=C(N)N)c1 yielded a Ki (Prothrombin) of 94 nM.

Cc1cc(OCCCON=C(N)N)cc(C(=O)N(CCC(C)C)Cc2ccoc2)c1 gave a Ki (Prothrombin) of 7 nM.

In the case of COC(=O)CCN(CC1CC1)C(=O)c1cc(Cl)cc(OCCCONC(=N)N)c1, the Ki (Prothrombin) is reported as 38 nM.

For CCCN(CC1CCC1)C(=O)c1cc(C)cc(OCCCON=C(N)N)c1, the Ki (Prothrombin) was 17 nM.

Work on CCCN(CC1CCCC1)C(=O)c1cc(Cl)cc(OCCCONC(=N)N)c1 yielded a Ki (Prothrombin) of 38 nM.

With CCCN(Cc1ccc(F)cc1)C(=O)c1cc(C)cc(OCCCON=C(N)N)c1 the Ki (Prothrombin) was 21 nM.

CCCN(Cc1ccncc1)C(=O)c1cc(C)cc(OCCCONC(=N)N)c1 gave a Ki (Prothrombin) of 73 nM.

For Cc1cc(OCC2(CONC(=N)N)CC2)cc(C(=O)N(Cc2ccoc2)CC2CC2)c1, the bioavailability [1] was 77%, the clearance [2] was 5.7 mL/min/kg and the Ki (Prothrombin) was 4 nM. For the same compound, the Vd [3] was 2.5 L/kg, the Cmax [4] was 4.1 µM and the half-life [5] was 5.9 h.

N=C(N)NOCCCOc1cc(Cl)cc(C(=O)N2CCc3ccccc3C2)c1 gave a Ki (Prothrombin) of 171 nM.

For CCSCCN(Cc1ccoc1)C(=O)c1cc(C)cc(OCCCON=C(N)N)c1, the Ki (Prothrombin) was 6 nM.

Compound CCOC(=O)CCN(CC1CC1)C(=O)c1cc(C)cc(OCCCONC(=N)N)c1 has a Ki (Prothrombin) of 65 nM.

Cc1cc(OCCCONC(=N)N)cc(C(=O)N(Cc2ccsc2)CC2CC2)c1 gave a Ki (Prothrombin) of 31 nM.

For Cc1cc(OCCCON=C(N)N)cc(C(=O)N(Cc2ccoc2)CC2CC2)c1, the Activity (Caco-2) was 3e-06 cm/s and the 2 x APTT (Homo sapiens) was 8.4 µM.

For N=C(N)NOCCCOc1cc(Cl)cc(C(=O)N(CCc2ccncc2)CC2CC2)c1, the Ki (Prothrombin) was 52 nM.

CCCN(Cc1ccoc1)C(=O)c1cc(C)cc(OCCCON=C(N)N)c1 showed an Activity (Caco-2) of 4.05e-06 cm/s and a 2 x APTT (Homo sapiens) of 11.5 µM.

In the case of N=C(N)NOCCCOc1cc(Cl)cc(C(=O)N(CCC(=O)O)CC2CC2)c1, the Ki (Prothrombin) is reported as 213 nM.

With C=CCN(C(=O)c1cc(C)cc(OCCCONC(=N)N)c1)C1CCCCC1 the Ki (Prothrombin) was 9 nM.

For Cc1cc(OCCCONC(=N)N)cc(C(=O)N(Cc2ccncc2)CC2CC2)c1, the Ki (Prothrombin) was 24 nM.

CCN(Cc1ccncc1)C(=O)c1cc(Cl)cc(OCCCONC(=N)N)c1 showed a Ki (Prothrombin) of 1600 nM.

Work on COCCN(Cc1ccoc1)C(=O)c1cc(C)cc(OCCCON=C(N)N)c1 yielded a Ki (Prothrombin) of 28 nM.

For CCCN(Cc1nccs1)C(=O)c1cc(C)cc(OCCCONC(=N)N)c1, the Ki (Prothrombin) was 195 nM.

N=C(N)NOCCCOc1cc(Cl)cc(C(=O)N(CCN2CCCC2)CC2CC2)c1 showed a Ki (Prothrombin) of 204 nM.

Cc1cc(OCCCONC(=N)N)cc(C(=O)N(CCCCCC(N)=O)C2CCCCC2)c1 gave a Ki (Prothrombin) of 8 nM.

With CCCN(CC1CC1)C(=O)c1cc(Cl)cc(OCCCONC(=N)N)c1 the Ki (Prothrombin) was 23 nM.

Compound Cc1cc(OCCCON=C(N)N)cc(C(=O)N(Cc2ccoc2)CC2CCCCC2)c1 has a Ki (Prothrombin) of 21 nM.

Work on CCN(Cc1ccccc1)C(=O)c1cc(Cl)cc(OCCCONC(=N)N)c1 yielded a Ki (Prothrombin) of 91 nM.

Work on CN(C(=O)c1cc(Cl)cc(OCCCONC(=N)N)c1)C1CCCC1 yielded a Ki (Prothrombin) of 373 nM.

Compound C=CCN(C(=O)c1cc(C)cc(OCCCON=C(N)N)c1)C1CCCC1 has an Activity (Caco-2) of 4.86e-06 cm/s and a 2 x APTT (Homo sapiens) of 11.3 µM.

Work on Cc1cc(OCCCONC(=N)N)cc(C(=O)N(Cc2ccoc2)CC2CC2)c1 yielded a bioavailability [1] of 68%, a clearance [2] of 7.8 mL/min/kg and a Ki (Prothrombin) of 11 nM. For the same compound, the Vd [3] was 1.6 L/kg, the Cmax [4] was 5.1 µM and the half-life [5] was 2.5 h.

CCCCN(Cc1ccoc1)C(=O)c1cc(C)cc(OCCCONC(=N)N)c1 showed a Ki (Prothrombin) of 8 nM.

Cc1cc(OCC2(CON=C(N)N)CC2)cc(C(=O)N(Cc2ccoc2)CC2CC2)c1 showed an Activity (Caco-2) of 2.17e-06 cm/s and a 2 x APTT (Homo sapiens) of 8.7 µM.

For CCCN(CC1CCC1)C(=O)c1cc(Cl)cc(OCCCON=C(N)N)c1, the Ki (Prothrombin) was 16 nM.

COCCN(CC1CC1)C(=O)c1cc(Cl)cc(OCCCONC(=N)N)c1 showed a Ki (Prothrombin) of 156 nM.

Compound CCCN(Cc1ccoc1)C(=O)c1cc(C)cc(OCCCONC(=N)N)c1 has a bioavailability [1] of 62%, a clearance [2] of 10.1 mL/min/kg and a Ki (Prothrombin) of 9 nM. It also gave a Vd [3] of 2.4 L/kg, a Cmax [4] of 4.5 µM and a half-life [5] of 3.8 h.

For CCCN(Cc1ccoc1)C(=O)c1cc(C)cc(OCC2(CON=C(N)N)CC2)c1, the bioavailability [1] was 73%, the clearance [2] was 4.2 mL/min/kg and the Vd [3] was 1.7 L/kg. It also gave an Activity (Caco-2) of 4.11e-06 cm/s, a Cmax [4] of 5.8 µM and a half-life [5] of 4.4 h.

In the case of C=CCN(C(=O)c1cc(C)cc(OCCCONC(=N)N)c1)C1CCCC1, the bioavailability [1] is reported as 89%, the clearance [2] is reported as 11.2 mL/min/kg and the Ki (Prothrombin) is reported as 10 nM. It also gave a Vd [3] of 2.8 L/kg, a Cmax [4] of 3.7 µM and a half-life [5] of 3.7 h.

In the case of N=C(N)NOCCCOc1cc(Cl)cc(C(=O)N(CCc2ccccn2)CC2CC2)c1, the Ki (Prothrombin) is reported as 59 nM.

Work on Cc1cc(OCCCONC(=N)N)cc(C(=O)N(Cc2ccoc2)C2CCC2)c1 yielded a Ki (Prothrombin) of 22 nM.

For Cc1cc(OCCCONC(=N)N)cc(C(=O)N(Cc2ccccn2)CC2CC2)c1, the Ki (Prothrombin) was 86 nM.

CCCN(Cc1cccnc1)C(=O)c1cc(C)cc(OCCCONC(=N)N)c1 showed a Ki (Prothrombin) of 52 nM.

Cc1cc(OCCCONC(=N)N)cc(C(=O)N(CCC(N)=O)Cc2ccoc2)c1 gave a Ki (Prothrombin) of 110 nM.

For CCN(C(=O)c1cc(C)cc(OCCCONC(=N)N)c1)C1CCCCC1, the Ki (Prothrombin) was 6 nM.

In the case of C[C@H](CS)C(=O)N1CCC[C@H]1C(=O)O [CAPTOPRIL], the Ki (Prothrombin) is reported as 48 nM.

Work on N=C(N)NOCCCOc1cc(Cl)cc(C(=O)N2CCC(Cc3ccccc3)CC2)c1 yielded a Ki (Prothrombin) of 1500 nM.

With C=CCN(Cc1cccs1)C(=O)c1cc(Cl)cc(OCCCONC(=N)N)c1 the Ki (Prothrombin) was 147 nM.

With N=C(N)NOCCCOc1cc(Cl)cc(C(=O)N(CCc2cccnc2)CC2CC2)c1 the Ki (Prothrombin) was 47 nM.

In the case of N=C(N)NOCCCOc1cc(Cl)cc(C(=O)N(CCN2CCOCC2)CC2CC2)c1, the Ki (Prothrombin) is reported as 159 nM.

Compound N=C(N)NOCCCOc1cc(Cl)cc(C(=O)N2CCN(c3ccccn3)CC2)c1 has a Ki (Prothrombin) of 640 nM.

Reference: ChEMBL document CHEMBL1146801, “Oxyguanidines. Part 2: Discovery of a novel orally active thrombin inhibitor through structure-based drug design and parallel synthesis” (Bioorg Med Chem Lett, 2004)
